According to US11840533B2, “Pyridinone-based epigenetic modifiers and uses thereof” (THE BOARD OF TRUSTEES OF THE UNIVERSITY OF ILLINOIS, priority 2017, dated 2023):
Values belong to the compound of their own block, whether it stands above or below them.

Key:
[1] = tested on: fulvestrant-resistant MCF7:5C-FR cells; assay: Fulvestrant-resistant breast cancer cell viability (cell proliferation) assay; type: cell-based; conditions: for IC50: 120 h, growth inhibition in fulvestrant-resistant MCF-7:CFR cells, 120 hrs
Outline: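 Cells were treated the day after seeding with compounds at 3 nM to 10 uM for 120 h, with 0.1% DMSO vehicle and 1 uM JQ1 as positive control. Hoechst 33342-stained (5 μg/ml, 90 min, 37 C) nuclei were imaged and counted, and cell numbers normalized to vehicle.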

BRD4 bromodomain 1 = BRD4 bromodomain 1 (Homo sapiens (Human), UniProt O60885); assay: TR-FRET BRD4 binding assay, bromodomain 1; conditions: read-out: TR-FRET BRD4-BD1 Ki
Protocol: (§1) Briefly, compounds were serial diluted into the 1×TR-FRET Assay Buffer with no more than 8% DMSO, and the final concentration tested was distributed from […] to 10 uM with no more than 2% DMSO. (+)JQ-1 was used as positive control. […] Then the reconstituted BRD4 bromodomain ligand/APC Acceptor Mixture were added to every well and incubate for 1 hr at room temperature. The plate was sealed with adhesive aluminum seal to prevent photobleaching. Then the plate was read in time-resolved format by exiting the well at 340 nm and reading emmission at 620 and 670 nm, using 100 us delay and 500 us read window. Data analysis was performed using the TR-FRET ratio which is the 670 nm emission/620 nm emission.

BRD4 bromodomain 2 = BRD4 bromodomain 2 (Homo sapiens (Human), UniProt O60885); assay: TR-FRET BRD4 binding assay, bromodomain 2; conditions: read-out: TR-FRET BRD4-BD2 Ki
Protocol: as §1

BRD3(1) = BRD3(1) (Homo sapiens (Human), UniProt Q15059); assay: BROMOscan; type: binding
BRD3(1), sequence (Q15059 34-140): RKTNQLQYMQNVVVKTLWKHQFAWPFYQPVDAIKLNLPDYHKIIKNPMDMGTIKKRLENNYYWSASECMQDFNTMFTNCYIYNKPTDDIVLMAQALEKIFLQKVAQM
Source text: (§2) BROMOscan is a bromodomain inhibitor binding platform provided by DiscoverX that measures the interactions between compounds and a panel of bromodomain proteins.

BRD3(1, 2) = BRD3(1, 2) (Homo sapiens (Human), UniProt Q15059); assay: BROMOscan; type: binding
Source text: as §2

BRDT(1) = BRDT(1) (Homo sapiens (Human), UniProt Q58F21); assay: BROMOscan; type: binding
Source text: as §2

BRDT(1, 2) = BRDT(1, 2) (Homo sapiens (Human), UniProt Q58F21); assay: BROMOscan; type: binding
Source text: as §2

BRPF1 = BRPF1 (Homo sapiens (Human), UniProt P55201); assay: BROMOscan; type: binding
Source text: as §2

BRD9 = BRD9 (Homo sapiens (Human), UniProt Q9H8M2); assay: BROMOscan; type: binding
Source text: as §2

CREBBP = CREBBP (Homo sapiens (Human), UniProt Q92793); assay: BROMOscan; type: binding
CREBBP, sequence (Q92793 whole entry): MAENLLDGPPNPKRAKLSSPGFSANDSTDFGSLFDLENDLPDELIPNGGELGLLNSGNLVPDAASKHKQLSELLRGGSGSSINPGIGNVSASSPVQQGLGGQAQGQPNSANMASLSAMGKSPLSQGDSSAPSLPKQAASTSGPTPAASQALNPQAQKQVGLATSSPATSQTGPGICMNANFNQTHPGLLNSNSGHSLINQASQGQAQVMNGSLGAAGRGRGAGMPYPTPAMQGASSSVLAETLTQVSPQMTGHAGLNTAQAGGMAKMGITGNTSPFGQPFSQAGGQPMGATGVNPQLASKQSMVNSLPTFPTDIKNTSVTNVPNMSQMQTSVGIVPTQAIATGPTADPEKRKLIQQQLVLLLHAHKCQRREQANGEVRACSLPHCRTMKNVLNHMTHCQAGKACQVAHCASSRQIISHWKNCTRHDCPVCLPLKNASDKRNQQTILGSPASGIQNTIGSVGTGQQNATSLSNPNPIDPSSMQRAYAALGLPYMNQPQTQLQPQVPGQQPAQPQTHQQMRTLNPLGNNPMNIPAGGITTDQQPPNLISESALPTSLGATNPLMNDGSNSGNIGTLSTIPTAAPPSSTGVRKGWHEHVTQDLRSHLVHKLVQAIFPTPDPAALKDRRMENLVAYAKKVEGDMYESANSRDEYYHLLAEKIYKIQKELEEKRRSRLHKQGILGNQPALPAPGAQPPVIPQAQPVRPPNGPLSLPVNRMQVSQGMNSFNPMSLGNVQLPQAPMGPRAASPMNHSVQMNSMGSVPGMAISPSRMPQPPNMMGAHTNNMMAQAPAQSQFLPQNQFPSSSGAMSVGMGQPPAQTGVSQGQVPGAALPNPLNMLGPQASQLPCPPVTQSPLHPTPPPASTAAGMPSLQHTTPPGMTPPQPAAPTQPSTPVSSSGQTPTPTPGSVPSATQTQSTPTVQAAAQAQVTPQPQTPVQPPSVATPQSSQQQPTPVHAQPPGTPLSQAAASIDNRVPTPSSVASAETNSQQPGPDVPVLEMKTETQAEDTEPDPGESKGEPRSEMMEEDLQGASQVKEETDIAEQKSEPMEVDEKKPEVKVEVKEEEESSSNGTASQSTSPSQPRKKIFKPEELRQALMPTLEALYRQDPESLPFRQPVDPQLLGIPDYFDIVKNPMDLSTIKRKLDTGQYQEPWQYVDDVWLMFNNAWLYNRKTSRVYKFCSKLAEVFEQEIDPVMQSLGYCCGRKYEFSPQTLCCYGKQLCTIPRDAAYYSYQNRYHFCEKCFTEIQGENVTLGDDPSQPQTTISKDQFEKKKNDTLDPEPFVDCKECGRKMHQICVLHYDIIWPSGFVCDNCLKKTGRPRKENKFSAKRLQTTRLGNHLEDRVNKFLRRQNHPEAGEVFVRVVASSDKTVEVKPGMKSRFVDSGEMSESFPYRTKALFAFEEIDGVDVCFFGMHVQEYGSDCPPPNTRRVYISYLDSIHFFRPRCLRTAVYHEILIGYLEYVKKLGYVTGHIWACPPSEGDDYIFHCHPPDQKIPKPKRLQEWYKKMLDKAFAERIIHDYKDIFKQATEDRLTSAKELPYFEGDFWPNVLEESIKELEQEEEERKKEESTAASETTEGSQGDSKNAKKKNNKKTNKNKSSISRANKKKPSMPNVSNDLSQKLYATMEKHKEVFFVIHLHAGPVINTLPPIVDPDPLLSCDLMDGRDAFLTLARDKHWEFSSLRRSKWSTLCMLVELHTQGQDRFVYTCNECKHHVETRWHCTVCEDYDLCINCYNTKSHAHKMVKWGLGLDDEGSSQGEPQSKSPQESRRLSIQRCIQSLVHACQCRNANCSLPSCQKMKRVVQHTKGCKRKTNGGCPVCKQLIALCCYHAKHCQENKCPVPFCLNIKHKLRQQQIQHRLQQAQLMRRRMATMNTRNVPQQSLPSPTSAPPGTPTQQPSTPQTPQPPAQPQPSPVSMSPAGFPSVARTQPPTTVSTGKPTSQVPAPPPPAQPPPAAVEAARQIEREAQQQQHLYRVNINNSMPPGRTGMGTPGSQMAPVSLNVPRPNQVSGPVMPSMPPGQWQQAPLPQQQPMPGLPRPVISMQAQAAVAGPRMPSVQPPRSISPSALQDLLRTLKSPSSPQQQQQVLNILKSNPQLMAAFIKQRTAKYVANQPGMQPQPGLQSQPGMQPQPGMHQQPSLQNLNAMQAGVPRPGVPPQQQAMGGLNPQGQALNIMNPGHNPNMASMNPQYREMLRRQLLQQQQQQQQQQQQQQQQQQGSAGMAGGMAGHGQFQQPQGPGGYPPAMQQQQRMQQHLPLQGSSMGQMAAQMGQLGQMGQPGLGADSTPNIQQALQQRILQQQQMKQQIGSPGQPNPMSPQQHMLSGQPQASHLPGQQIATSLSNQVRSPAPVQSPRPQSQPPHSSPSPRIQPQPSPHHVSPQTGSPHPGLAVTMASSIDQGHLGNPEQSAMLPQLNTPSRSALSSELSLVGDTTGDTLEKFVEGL
Source text: as §2

TAF1(2) = TAF1(2) (Homo sapiens (Human), UniProt P21675); assay: BROMOscan; type: binding
TAF1(2), sequence (P21675 1519-1628): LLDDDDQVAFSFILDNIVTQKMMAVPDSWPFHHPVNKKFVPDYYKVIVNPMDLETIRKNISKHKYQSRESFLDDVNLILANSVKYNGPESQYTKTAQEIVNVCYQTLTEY
Source text: as §2

BRD2(1) = BRD2(1) (Homo sapiens (Human), UniProt P25440); assay: BROMOscan; type: binding
BRD2(1), sequence (P25440 74-180): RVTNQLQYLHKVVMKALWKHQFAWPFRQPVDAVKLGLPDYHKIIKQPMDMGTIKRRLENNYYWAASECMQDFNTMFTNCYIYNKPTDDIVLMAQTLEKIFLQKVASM
Source text: as §2

BRD8(1) = BRD8(1) (Homo sapiens (Human), UniProt Q9H0E9); assay: BROMOscan; type: binding
BRD8(1), sequence (Q9H0E9 706-811): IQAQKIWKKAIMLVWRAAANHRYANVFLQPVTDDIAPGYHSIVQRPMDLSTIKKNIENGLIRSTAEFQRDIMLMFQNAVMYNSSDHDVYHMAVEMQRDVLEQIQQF
Source text: as §2

TAF1L(2) = TAF1L(2) (Homo sapiens (Human), UniProt Q8IZX4); assay: BROMOscan; type: binding
TAF1L(2), sequence (Q8IZX4 1517-1626): as the sequence (P21675 1519-1628) above, with V46M, M51V, V102I, L107I counted along it
Source text: as §2

BRD2(1, 2) = BRD2(1, 2) (Homo sapiens (Human), UniProt P25440); assay: BROMOscan; type: binding
Source text: as §2

BAZ2A = BAZ2A (Homo sapiens (Human), UniProt Q9UIF9); assay: BROMOscan; type: binding
BAZ2A, sequence (Q9UIF9 whole entry): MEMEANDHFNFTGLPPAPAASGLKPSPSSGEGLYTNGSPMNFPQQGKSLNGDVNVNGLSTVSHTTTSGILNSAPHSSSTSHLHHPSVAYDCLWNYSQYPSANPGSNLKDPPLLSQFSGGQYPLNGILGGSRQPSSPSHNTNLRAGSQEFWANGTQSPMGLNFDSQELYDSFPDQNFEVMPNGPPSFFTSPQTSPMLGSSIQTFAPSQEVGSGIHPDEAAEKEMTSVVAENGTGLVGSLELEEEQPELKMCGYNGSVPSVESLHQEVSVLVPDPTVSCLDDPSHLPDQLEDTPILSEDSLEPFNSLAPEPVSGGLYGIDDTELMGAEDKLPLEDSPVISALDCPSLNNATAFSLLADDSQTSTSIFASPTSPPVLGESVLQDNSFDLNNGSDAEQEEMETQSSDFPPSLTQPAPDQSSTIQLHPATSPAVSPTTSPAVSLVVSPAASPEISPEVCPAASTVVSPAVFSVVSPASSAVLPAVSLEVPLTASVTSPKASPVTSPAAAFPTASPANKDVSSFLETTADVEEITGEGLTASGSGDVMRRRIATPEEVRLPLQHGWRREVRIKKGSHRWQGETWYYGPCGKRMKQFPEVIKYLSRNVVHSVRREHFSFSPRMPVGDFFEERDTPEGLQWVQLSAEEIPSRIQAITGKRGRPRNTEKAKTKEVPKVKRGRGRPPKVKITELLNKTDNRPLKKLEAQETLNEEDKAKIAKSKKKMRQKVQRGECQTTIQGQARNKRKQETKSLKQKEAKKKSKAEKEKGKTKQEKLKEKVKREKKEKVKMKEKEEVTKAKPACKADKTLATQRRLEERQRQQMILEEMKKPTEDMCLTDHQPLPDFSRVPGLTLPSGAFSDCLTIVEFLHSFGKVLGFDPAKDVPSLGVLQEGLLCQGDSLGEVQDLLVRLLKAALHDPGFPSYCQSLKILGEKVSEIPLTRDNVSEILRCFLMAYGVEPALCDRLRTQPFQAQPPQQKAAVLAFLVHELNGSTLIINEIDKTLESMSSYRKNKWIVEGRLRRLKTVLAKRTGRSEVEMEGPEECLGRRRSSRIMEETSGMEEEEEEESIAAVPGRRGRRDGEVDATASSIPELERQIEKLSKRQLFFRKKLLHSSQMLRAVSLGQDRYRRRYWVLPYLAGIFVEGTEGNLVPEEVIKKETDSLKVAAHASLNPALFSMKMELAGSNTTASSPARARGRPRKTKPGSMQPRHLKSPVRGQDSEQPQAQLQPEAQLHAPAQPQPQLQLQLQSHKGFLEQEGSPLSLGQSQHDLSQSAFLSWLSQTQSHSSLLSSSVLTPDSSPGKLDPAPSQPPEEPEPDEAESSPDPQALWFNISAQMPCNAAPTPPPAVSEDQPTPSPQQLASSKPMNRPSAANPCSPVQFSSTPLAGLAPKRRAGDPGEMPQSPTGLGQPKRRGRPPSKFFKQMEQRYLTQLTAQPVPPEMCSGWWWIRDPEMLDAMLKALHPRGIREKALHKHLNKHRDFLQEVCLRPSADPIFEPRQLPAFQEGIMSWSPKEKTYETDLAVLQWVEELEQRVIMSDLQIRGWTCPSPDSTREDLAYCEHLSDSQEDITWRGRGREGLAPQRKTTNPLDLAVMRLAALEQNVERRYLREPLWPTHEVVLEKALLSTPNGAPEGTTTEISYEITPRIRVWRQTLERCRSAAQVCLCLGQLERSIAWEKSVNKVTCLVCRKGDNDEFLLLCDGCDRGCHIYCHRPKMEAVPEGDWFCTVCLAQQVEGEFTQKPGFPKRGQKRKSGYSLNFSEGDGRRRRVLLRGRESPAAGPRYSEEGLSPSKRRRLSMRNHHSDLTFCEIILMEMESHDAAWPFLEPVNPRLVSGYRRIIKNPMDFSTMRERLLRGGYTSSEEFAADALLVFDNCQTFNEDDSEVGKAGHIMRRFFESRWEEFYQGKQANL
Source text: as §2

BRDT(2) = BRDT(2) (Homo sapiens (Human), UniProt Q58F21); assay: BROMOscan; type: binding
Source text: as §2

BRD3(2) = BRD3(2) (Homo sapiens (Human), UniProt Q15059); assay: BROMOscan; type: binding
BRD3(2), sequence (Q15059 306-415): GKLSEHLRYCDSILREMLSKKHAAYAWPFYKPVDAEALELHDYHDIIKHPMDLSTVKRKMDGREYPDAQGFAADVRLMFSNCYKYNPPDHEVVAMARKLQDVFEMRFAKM
Source text: as §2

TRIM24(Bromo.) = TRIM24(Bromo.) (Homo sapiens (Human), UniProt O15164); assay: BROMOscan; type: binding
Source text: as §2

EP300 = EP300 (Homo sapiens (Human), UniProt Q09472); assay: BROMOscan; type: binding
Source text: as §2

CECR2 = CECR2 (Homo sapiens (Human), UniProt Q9BXF3); assay: BROMOscan; type: binding
Source text: as §2

PBRM1(5) = PBRM1(5) (Homo sapiens (Human), UniProt Q86U86); assay: BROMOscan; type: binding
Source text: as §2

BRD2(2) = BRD2(2) (Homo sapiens (Human), UniProt P25440); assay: BROMOscan; type: binding
BRD2(2), sequence (P25440 344-453): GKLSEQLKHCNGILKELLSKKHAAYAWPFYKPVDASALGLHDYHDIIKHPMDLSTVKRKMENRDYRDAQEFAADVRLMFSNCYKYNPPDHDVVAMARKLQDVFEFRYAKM
Source text: as §2

BRD1 = BRD1 (Homo sapiens (Human), UniProt O95696); assay: BROMOscan; type: binding
Source text: as §2

[2] = tested on: 3D spheroids of fulvestrant-resistant MCF-7:CFR; assay: Growth of 3D spheroids of fulvestrant-resistant MCF-7:CFR; type: cell-based; conditions: FIG. 11; vs JQ1 and AZD-5153
BET family proteins = assay: BROMOscan panel of bromodomain proteins; type: binding; conditions: FIG. 6
Source text: as §2

Structure (SMILES): Cn1cc(-c2cc(NS(C)(=O)=O)c3ccn(Cc4ccc(F)cc4)c3c2)c2ccnc(O)c21 [Compound 23, N-(1-(4-fluorobenzyl)-6-(7-hydroxy-1-methyl-1H-pyrrolo[2,3-c]pyridin-3-yl)-1-indol-4-yl)methanesulfonamide]
- IC50 [1]: 17 nM
- Ki (BRD4 bromodomain 1): < 100 nM
- Ki (BRD4 bromodomain 2): < 100 nM

Structure (SMILES): CCS(=O)(=O)Nc1cc(-c2cn(C)c3c(O)nccc23)cc2c1cnn2Cc1ccc(F)cc1 [Compound 31, N-(1-(4-fluorobenzyl)-6-(7-hydroxy-1-methyl-1H-pyrrolo[2,3-c]pyridin-3-yl)-1H-indazol-4-yl)ethanesulfonamide]
- IC50 [1]: 15 nM
- Ki (BRD4 bromodomain 1): < 100 nM
- Ki (BRD4 bromodomain 2): < 100 nM

Structure (SMILES): Cn1cc(-c2cc(NS(C)(=O)=O)c3cnn(Cc4ccc(F)cc4)c3c2)c2ccnc(O)c21 [Compound 30, N-(1-(4-fluorobenzyl)-6-(7-hydroxy-1-methyl-1H-pyrrolo[2,3-c]pyridin-3-yl)-1H-indazol-4-yl)methanesulfonamide]
- IC50 [1]: 40 nM
- Ki (BRD4 bromodomain 1): < 100 nM
- Ki (BRD4 bromodomain 2): < 100 nM

The next lines start with results.

- IC50 [1]: 20 nM
- Ki (BRD4 bromodomain 1): < 10 nM
- Ki (BRD4 bromodomain 2): < 10 nM
Structure (SMILES): Cn1cc(-c2cc(C(C)(C)O)c3ccn(C(C)(c4ccccn4)c4ccccn4)c3c2)c2cc[nH]c(=O)c21 [Compound 72, 3-(1-(1,1-di(pyridin-2-yl)ethyl)-4-(2-hydroxypropan-2-yl)-1H-indol-6-yl)-1-methyl-1H-pyrrolo[2,3-c]pyridin-7(6H)-one]

- IC50 [1]: 10 nM
- Ki (BRD4 bromodomain 1): < 10 nM
- Ki (BRD4 bromodomain 2): < 10 nM
Structure (SMILES): CC(=O)Nc1cc(-c2cn(C)c3c(=O)[nH]ccc23)cc2c1ccn2C(C)(c1ccccn1)c1ccccn1 [Compound 71, N-(1-(1,1-di(pyridin-2-yl)ethyl)-6-(1-methyl-7-oxo-6,7-dihydro-1H-pyrrolo[2,3-c]pyridin-3-yl)-1H-indol-4-yl)acetamide]

- Kd (BRD3(1)): 0.34 nM
- Kd (BRD3(1, 2)): 0.27 nM
- Kd (BRDT(1)): 0.14 nM
- Kd (BRDT(1, 2)): 0.23 nM
- Kd (BRPF1): 360 nM
- Kd (BRD9): 3.5 µM
- Kd (CREBBP): 110 nM
- Kd (TAF1(2)): 9.1 nM
- Kd (BRD2(1)): 0.27 nM
- Kd (BRD8(1)): 4.9 µM
- Kd (TAF1L(2)): 44 nM
- Kd (BRD2(1, 2)): 0.57 nM
- Kd (BAZ2A): 3.5 µM
- Kd (BRDT(2)): 1.4 nM
- Kd (BRD3(2)): 0.61 nM
- Kd (TRIM24(Bromo.)): 4.4 µM
- Kd (EP300): 37 nM
- Kd (CECR2): 6 µM
- Kd (PBRM1(5)): 6.1 µM
- Kd (BRD2(2)): 0.77 nM
- Kd (BRD1): 7.7 µM
- IC50 [1]: 0.9 nM
- binding affinity for BET family (BET family proteins): subnanomolar potency
Structure (SMILES): CCS(=O)(=O)Nc1cc(-c2cn(C)c3c(=O)[nH]ccc23)cc2c1ccn2C(C)(c1ccccn1)c1ccccn1 [Compound 70]
- growth inhibition in comparison with clinical benchmark BET inhibitors ([1]; FIG. 10, vs BMS-98615, ABBV-075, AVR-771, AZD-5153, I-BET-762 and JQ1): superior potency
- efficacy in inhibiting the growth of 3D spheroids [2]: more efficacious than JQ1 and AZD-5153
